Laboratory results from ChEMBL document CHEMBL1909046, “DrugMatrix in vitro pharmacology data”.

Tests used:
[1] = biological target: T1, Cathepsin G (Homo sapiens, UniProt P08311); format: tissue-based; conditions: neutrophil;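 also: inhibition of Cathepsin G enzyme activity, tested on an AMC-conjugated peptide substrate; in other assays of this panel Not Active means under 50% inhibition at 10 µM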
T1 sequence (P08311 whole entry): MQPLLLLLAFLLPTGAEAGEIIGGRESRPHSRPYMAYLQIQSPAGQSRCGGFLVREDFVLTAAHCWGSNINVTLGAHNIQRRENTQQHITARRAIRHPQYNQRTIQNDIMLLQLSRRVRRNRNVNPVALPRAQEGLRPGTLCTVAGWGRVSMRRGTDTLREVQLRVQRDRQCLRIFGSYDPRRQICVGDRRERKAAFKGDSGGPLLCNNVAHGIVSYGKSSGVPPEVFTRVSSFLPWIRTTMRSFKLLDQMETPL

[2] = biological target: 5-hydroxytryptamine receptor 1B (Rattus norvegicus, UniProt P28564); format: cell membranes, Wistar, Cerebral cortex, Membrane; also: in other assays of this panel Not Active means under 50% inhibition at 10 µM
[3] = biological target: T2, C-X-C chemokine receptor type 1 (Homo sapiens, UniProt P25024); also: in other assays of this panel Not Active means under 50% inhibition at 10 µM
T2 sequence (P25024 whole entry): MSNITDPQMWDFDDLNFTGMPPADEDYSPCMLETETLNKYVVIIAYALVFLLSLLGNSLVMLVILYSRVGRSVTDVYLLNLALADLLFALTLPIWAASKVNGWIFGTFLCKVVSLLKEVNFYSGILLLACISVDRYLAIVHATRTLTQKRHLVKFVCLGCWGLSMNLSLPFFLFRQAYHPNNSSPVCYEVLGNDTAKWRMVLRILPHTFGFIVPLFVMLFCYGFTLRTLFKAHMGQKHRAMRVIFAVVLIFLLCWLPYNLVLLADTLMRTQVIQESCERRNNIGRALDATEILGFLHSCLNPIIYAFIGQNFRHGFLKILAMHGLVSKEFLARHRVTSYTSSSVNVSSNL

[4] = DRUGMATRIX: Glutamate, NMDA, Phencyclidine radioligand binding (ligand: [3H] TCP); format: cell membranes, Rattus norvegicus, Wistar, Cerebral cortex, Membrane; conditions: Not Active = under 50% inhibition at 10 µM
[5] = biological target: T3, Caspase-1 (Homo sapiens, UniProt P29466); design: species or system Escherichia coli;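 also: Caspase-1 enzyme inhibition assay with a peptide substrate; in other assays of this panel Not Active means under 50% inhibition at 10 µM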
T3 sequence (P29466 whole entry): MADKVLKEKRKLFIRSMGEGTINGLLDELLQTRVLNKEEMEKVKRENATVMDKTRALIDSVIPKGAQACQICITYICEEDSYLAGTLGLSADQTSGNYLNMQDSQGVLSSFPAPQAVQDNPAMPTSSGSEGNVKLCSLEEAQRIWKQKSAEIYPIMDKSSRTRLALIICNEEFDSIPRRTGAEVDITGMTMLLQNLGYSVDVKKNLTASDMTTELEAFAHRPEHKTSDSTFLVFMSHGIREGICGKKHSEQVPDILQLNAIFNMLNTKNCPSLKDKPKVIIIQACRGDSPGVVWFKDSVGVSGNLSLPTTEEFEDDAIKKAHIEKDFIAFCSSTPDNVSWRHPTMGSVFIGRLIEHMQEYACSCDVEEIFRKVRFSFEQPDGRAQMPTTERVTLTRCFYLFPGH

[6] = biological target: T4, Androgen receptor (Rattus norvegicus, UniProt P15207); also: in other assays of this panel Not Active means under 50% inhibition at 10 µM
T4 sequence (P15207 whole entry): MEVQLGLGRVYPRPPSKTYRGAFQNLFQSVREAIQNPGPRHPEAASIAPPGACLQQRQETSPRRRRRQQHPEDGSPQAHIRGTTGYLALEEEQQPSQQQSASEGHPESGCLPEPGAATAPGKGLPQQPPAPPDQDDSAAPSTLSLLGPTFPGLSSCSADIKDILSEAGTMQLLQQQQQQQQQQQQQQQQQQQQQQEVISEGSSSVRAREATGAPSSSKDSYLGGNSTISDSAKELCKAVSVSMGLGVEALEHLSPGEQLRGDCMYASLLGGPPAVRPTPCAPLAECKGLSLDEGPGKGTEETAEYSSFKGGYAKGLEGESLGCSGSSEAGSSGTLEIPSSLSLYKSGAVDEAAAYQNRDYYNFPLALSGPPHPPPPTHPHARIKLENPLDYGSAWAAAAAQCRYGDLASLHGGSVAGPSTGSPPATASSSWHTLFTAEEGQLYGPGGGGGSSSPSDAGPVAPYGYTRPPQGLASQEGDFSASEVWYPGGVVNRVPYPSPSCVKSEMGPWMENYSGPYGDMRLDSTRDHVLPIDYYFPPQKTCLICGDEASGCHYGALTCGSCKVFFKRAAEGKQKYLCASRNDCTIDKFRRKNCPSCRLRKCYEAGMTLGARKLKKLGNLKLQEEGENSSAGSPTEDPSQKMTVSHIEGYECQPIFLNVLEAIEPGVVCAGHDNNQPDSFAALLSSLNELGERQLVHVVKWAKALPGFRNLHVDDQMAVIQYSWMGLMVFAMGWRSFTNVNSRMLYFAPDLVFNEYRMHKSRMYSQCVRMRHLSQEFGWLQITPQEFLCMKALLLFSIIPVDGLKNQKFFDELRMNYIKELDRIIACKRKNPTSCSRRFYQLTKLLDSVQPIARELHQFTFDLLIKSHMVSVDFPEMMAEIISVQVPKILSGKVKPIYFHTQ

5-hydroxytryptamine receptor 1B, sequence (P28564 whole entry): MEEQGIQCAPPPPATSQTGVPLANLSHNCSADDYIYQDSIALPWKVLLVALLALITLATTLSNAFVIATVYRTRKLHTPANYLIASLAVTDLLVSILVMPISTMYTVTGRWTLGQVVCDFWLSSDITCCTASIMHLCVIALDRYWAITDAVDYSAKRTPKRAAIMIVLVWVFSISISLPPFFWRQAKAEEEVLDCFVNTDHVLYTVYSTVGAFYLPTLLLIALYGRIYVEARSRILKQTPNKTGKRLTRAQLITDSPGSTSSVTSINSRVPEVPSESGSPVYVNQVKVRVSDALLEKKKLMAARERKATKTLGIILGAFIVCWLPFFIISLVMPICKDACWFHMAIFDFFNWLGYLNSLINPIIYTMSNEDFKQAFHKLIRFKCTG

Cc1c(C)c2c(c(C)c1O)CCC(C)(CN1CCN(c3cc(N4CCCC4)nc(N4CCCC4)n3)CC1)O2 (stereo not drawn)
IC50 [1]: Not Active
IC50 [2]: Not Active
IC50 [3]: Not Active
IC50 [4]: Not Active
Ki [4]: Not Active
IC50 [5]: Not Active
IC50 [6]: Not Active

COc1ccc(CCN(C)CCCC(C#N)(c2ccc(OC)c(OC)c2)C(C)C)cc1OC (stereo not drawn)
IC50 [1]: Not Active
IC50 [2]: Not Active
IC50 [3]: Not Active
IC50 [4]: Not Active
Ki [4]: Not Active
IC50 [5]: Not Active

CC(C)Cc1ccc([C@@H](C)C(=O)O)cc1 [(R)-IBUPROPHEN]
IC50 [1]: Not Active
IC50 [2]: Not Active
IC50 [3]: Not Active
IC50 [4]: Not Active
Ki [4]: Not Active
IC50 [5]: Not Active

CN(C)CCOC(c1ccccc1)c1ccccc1 [DIPHENHYDRAMINE]
IC50 [1]: Not Active
IC50 [2]: Not Active
IC50 [3]: Not Active
IC50 [5]: Not Active
IC50 [6]: Not Active

Fc1ccc(C(c2ccc(F)cc2)N2CCN(C/C=C/c3ccccc3)CC2)cc1 [FLUNARIZINE]
IC50 [1]: Not Active
IC50 [2]: Not Active
IC50 [3]: Not Active
IC50 [5]: Not Active

CNCCC(Oc1ccc(C(F)(F)F)cc1)c1ccccc1 (stereo not drawn) [FLUOXETINE]
IC50 [1]: Not Active
IC50 [2]: Not Active
IC50 [3]: Not Active
IC50 [5]: Not Active

Cc1ccc(NC(=O)c2ccc(CN3CCN(C)CC3)cc2)cc1Nc1nccc(-c2cccnc2)n1 [IMATINIB]
IC50 [1]: Not Active
IC50 [2]: Not Active
IC50 [3]: Not Active
IC50 [5]: Not Active
IC50 [6]: Not Active

CC(C)Oc1ccc2c(=O)c(-c3ccccc3)coc2c1 [IPRIFLAVONE]
IC50 [1]: Not Active
IC50 [2]: Not Active
IC50 [3]: Not Active
IC50 [4]: Not Active
Ki [4]: Not Active
IC50 [5]: Not Active

CC(C)NCC(O)c1ccc(O)c(O)c1 (stereo not drawn) [ISOPROTERENOL]
IC50 [1]: Not Active
IC50 [2]: Not Active
IC50 [3]: Not Active
IC50 [4]: Not Active
Ki [4]: Not Active
IC50 [5]: Not Active

CNC1(c2ccccc2Cl)CCCCC1=O (stereo not drawn) [KETAMINE]
IC50 [1]: Not Active
IC50 [2]: Not Active
IC50 [3]: Not Active
IC50 ([4]; read-out: IC50): 1010 nM
Ki ([4]; read-out: Ki): 684 nM
IC50 [5]: Not Active

N#Cc1ccc(C(c2ccc(C#N)cc2)n2cncn2)cc1 [LETROZOLE]
IC50 [1]: Not Active
IC50 [2]: Not Active
IC50 [3]: Not Active
IC50 [4]: Not Active
Ki [4]: Not Active
IC50 [5]: Not Active
IC50 [6]: Not Active

CCN1CCC[C@H]1CNC(=O)c1cc(S(N)(=O)=O)ccc1OC [LEVOSULPIRIDE]
IC50 [1]: Not Active
IC50 [2]: Not Active
IC50 [3]: Not Active
IC50 [4]: Not Active
Ki [4]: Not Active
IC50 [5]: Not Active
IC50 [6]: Not Active

CCN(CC)CC(=O)Nc1c(C)cccc1C [LIDOCAINE]
IC50 [1]: Not Active
IC50 [2]: Not Active
IC50 [3]: Not Active
IC50 [4]: Not Active
Ki [4]: Not Active
IC50 [5]: Not Active
IC50 [6]: Not Active

O=C1Nc2ccc(Cl)cc2C(c2ccccc2Cl)=NC1O (stereo not drawn) [LORAZEPAM]
IC50 [1]: Not Active
IC50 [2]: Not Active
IC50 [3]: Not Active
IC50 [4]: Not Active
Ki [4]: Not Active
IC50 [5]: Not Active
IC50 [6]: Not Active
